In ChEMBL document CHEMBL5523698, “Design, synthesis, and biological evaluation of phenylcyclopropylamine-entinostat conjugates that selectively target cancer cells” (Bioorg Med Chem, 2024):
Activity calls are given as the source filed them. No cut-off for these calls is given here.

Columns and labels:
[1] = molecular target: T1, Lysine-specific histone demethylase 1A (Homo sapiens, UniProt O60341); test: Potency index, ratio of PCPA IC50 to test compound IC50 for inhibition of human recombinant LSD1
[2] = molecular target: T1, Lysine-specific histone demethylase 1A; test: Drug metabolism assessed as LSD1 (unknown origin) mediated entinostat release incubated for 24 hrs by HPLC analysis; assay type: ADME
[3] = molecular target: T1, Lysine-specific histone demethylase 1A; test: Inhibition of LSD1 in human PC-3 cells assessed as increase in H3K4me2 level incubated for 24 hrs by Western blotting analysis; assay type: cell-based; conditions: dose 0.1-1 µM
[4] = molecular target: T2, Histone deacetylase (Homo sapiens) (UniProt Q13547+O15379+Q9UBN7+Q92769+Q9UQL6+Q8WUI4+Q9BY41+Q96DB2+P56524+Q9UKV0+Q969S8); test: Inhibition of HDAC in human PC-3 cells assessed as H3K9 acetylation at 0.1 to 1 uM incubated for 24 hrs by Western blotting analysis; assay type: cell-based; conditions: dose 0.1-1 µM
[5] = molecular target: T1, Lysine-specific histone demethylase 1A; test: Inhibition of LSD1 in human PC-3 cells assessed as fold increase in H3K4me2 to H3 ratio at 0.1 uM incubated for 24 hrs by Western blotting analysis (reference value: 1); assay type: cell-based
[6] = molecular target: T1, Lysine-specific histone demethylase 1A; test: Inhibition of LSD1 in human PC-3 cells assessed as fold increase in H3K4me2 to H3 ratio at 0.3 uM incubated for 24 hrs by Western blotting analysis (reference value: 1); assay type: cell-based
[7] = molecular target: T1, Lysine-specific histone demethylase 1A; test: Inhibition of LSD1 in human PC-3 cells assessed as fold increase in H3K4me2 to H3 ratio at 1 uM incubated for 24 hrs by Western blotting analysis (reference value: 1); assay type: cell-based
[8] = molecular target: T2, Histone deacetylase (Homo sapiens); test: Inhibition of HDAC in human PC-3 cells assessed as fold increase in acetylated H3K9 to H3 ratio at 0.1 uM incubated for 24 hrs by Western blotting analysis (reference value: […]); assay type: cell-based
[9] = molecular target: T2, Histone deacetylase (Homo sapiens); test: Inhibition of HDAC in human PC-3 cells assessed as fold increase in acetylated H3K9 to H3 ratio at 0.3 uM incubated for 24 hrs by Western blotting analysis (reference value: 1); assay type: cell-based
[10] = molecular target: T2, Histone deacetylase (Homo sapiens); test: Inhibition of HDAC in human PC-3 cells assessed as fold increase in acetylated H3K9 to H3 ratio at 1 uM incubated for 24 hrs by Western blotting analysis (reference value: […]); assay type: cell-based
[11] = molecular target: T1, Lysine-specific histone demethylase 1A
Description: Inhibition of human recombinant LSD1 using H3K4me2 peptide substrate preincubated for 15 mins followed by substrate addition and measured after 30 mins by fluorescence based assay

HL-60 = test: cells; conditions: Homo sapiens, HL-60, 72 h
Description: Antiproliferative activity against human HL-60 cells incubated for 3 days by alamar blue assay

PC-3 = test: cells; conditions: Homo sapiens, PC-3, 72 h
Description: Antiproliferative activity against human PC-3 cells incubated for 3 days by alamar blue assay

LN-18 = test: cells; conditions: Homo sapiens, LN-18, 72 h
Description: Antiproliferative activity against human LN-18 cells incubated for 3 days by alamar blue assay

in vitro = conditions: human, PrEC cells
Description: Cytotoxicity against human PrEC cells incubated for 3 days by alamar blue assay

[12] = molecular target: T1, Lysine-specific histone demethylase 1A; test: Drug metabolism assessed as LSD1 (unknown origin) mediated entinostat release; assay type: ADME

Drug metabolism [12] | Structure (SMILES) | Ratio IC50 [1] | Drug metabolism [2] | inhibition [3] | inhibition [4] | fold change (FC) [5] | fold change (FC) [6] | fold change (FC) [7] | fold change (FC) [8] | fold change (FC) [9] | fold change (FC) [10] | IC50 [11] [nM] | GI50 (HL-60) [nM] | GI50 (PC-3) [nM] | GI50 (LN-18) [nM] | GI50 at 72 h (in vitro) [nM]
– | CN(CCN(C)C1CC1c1ccccc1)C(=O)Oc1ccc(COC(=O)Nc2ccccc2NC(=O)c2ccc(CNC(=O)OCc3cccnc3)cc2)cc1 (stereo unspecified) | 40 | Metabolite_Detected | Dose-Dependent Effect | Active | 1.18 | 1.49 | 1.58 | 1.48 | 1.77 | 2.01 | 626 | 4490 | 1180 | 5620 | > 100000
Metabolite_Notdetected | CN(CCN(C)C1CC1c1ccccc1)C(=O)Nc1ccccc1NC(=O)c1ccc(CNC(=O)OCc2cccnc2)cc1 (stereo unspecified) | – | – | – | – | – | – | – | – | – | – | 50300 | – | – | – | –
– | Nc1ccccc1NC(=O)c1ccc(CNC(=O)OCc2cccnc2)cc1 [ENTINOSTAT] | – | – | – | – | – | – | – | – | – | – | – | 214 | 87 | 917 | 2230
